These results are taken from US8846752B2, “Isoflavone fatty acid ester derivatives, preparation method and pharmaceutical uses thereof” (China Pharmaceutical University, priority 2010, dated 2014).

The subject of data set [1] is High Fat Diet Rats. The experiment in a line: Losing weight and depressing blood fat in high-fat diet SD rats. It is filed as in vivo. The following applies: intragastric once a day for a month, compounds 25 mg/kg, sibutramine 1.0 mg/kg, mean ± SD, n = 10. Here is the method:
1. Activity Determination of Losing Weight and Depressing Blood Fat of SD Rats
The experiment refers to the methods in Experimental Methodology of Pharmacology compiled by Xu Shuyun et al, People's Medical Publishing House 2002: 1189-1201, which is slightly modified.
SD rates (weight 80 g-100 g, male, clean grade) are randomly divided into the following groups according to the weight:
Blank control group (normal diet group); model control group (high-fat diet group); sibutramine, 1.0 mg/kg; Group I-1, 25 mg/kg; Group I-2, 25 mg/kg; Group I-3, 25 mg/kg; Group II-1, 25 mg/kg; Group II-2, 25 mg/kg; Group II-3, 25 mg/kg.
Except the blank control group, the other groups are fed with high-fat diet for two months. In the third month, all groups are required for intragastric administration and the blank control group and model control group are given appropriate volume of excipients once a day for a consecutive month. After the administration, exsanguinate and kill the rats, take femoral arterial blood and separate the plasma, and then measure the parameters according to the unified operating procedures in the kit instructions. Remove the fat around abdominal cavity and reproductive organs, weigh its wet weight and determine the body weight.

Data set [2] concerns PPARγ2-mRNA. Kind of data set: RT-PCR of PPARγ2-mRNA expression in 3T3-L1 cells. The following applies: during differentiation of preadipocyte 3T3-L1; GAPDH internal reference; FIG. 4. It is filed as cell-based. The protocol: 4.1.3 Reverse Transcription
Polymerase chain reaction (RT-PCR) experiment Extract the total RNA of fully differentiated 3T3-L1 cells to be reversely transcribed into cDNA. The primers are designed as follows:
• The length of the target product is 567 bp.
• The length of the target product is 424 bp.
PCR amplification conditions: initial denaturation at 94 for 5 min, then denaturize at 94 for 30 s, anneal at 57 for 40 s, and extend at 72 for 50 s, a total of 30 cycles. Finally extend at 72 for 10 min. Then conduct electrophoresis analysis with 1.5% agarose gel. GAPDH is used as the internal reference to alleviate the error between different samples. Compare the optical density of objective band with the optical density of amplified GAPDH band for analysis.

The conditions of data set [3]: cited from earlier work.
For data set [4], the system named is high fat and high sugar model ICR mice. Kind of data set: Losing weight, depressing blood fat and regulating blood sugar balance in high fat and high sugar ICR mice. It is filed as in vivo. On the set-up: Serum insulin concentration INS: unit not given here. The following applies: n = 10, x ± s. The source says: 2. Activity Determination of Losing Weight, Depressing Blood Fat and Regulating Blood Sugar Balance of ICR Mice
The experiment refers to the methods of Raquel Ferrer-Lorente et al (European Journal of Pharmacology, 2005, 513: 243-248), which are slightly modified.
Take 40 ICR mice (male, weight 13-15 g) and randomly divide them into two large groups according to their weight, a normal diet group (n=10) and a high fat and high sugar model group (n=30); give normal diet to the normal diet group and conduct subcutaneous injection of physiological saline each day; give high-fat and high-sugar diet to the high fat and high sugar model group and conduct subcutaneous injection of insulin (0.5 U/kg) each day. The food is not restricted. Measure the food regularly each day, weigh the weight once a week and feed 7 consecutive weeks.
7 weeks after modeling, the normal diet group is unchanged and the high fat and high sugar model group is divided into model control group (n=10), I-1 administration group (n=10) and I-2 administration group (n=10). The feed of each group is unchanged. The administration group is given corresponding compounds with the dose of 50 mg/kg and the blank group is given the equal volume of blank solvent. Conduct intragastric administration on each group for consecutive 30 days. Weigh 12 h after fasting after last administration, take the eyeballs for blood, prepare serum, determine the blood fat (triglyceride TG, free fatty acid FFA, total cholesterol TC, low density lipoprotein cholesterol LDL-C and high density lipoprotein cholesterol HDL-C) content and blood insulin content and detect the oxidative damage indicators in the blood (malondialdehyde MAD and superoxide dismutase SOD). Take off the cervical vertebrae to kill the rats, separate the perirenal, testicular, mesenteric and inguinal (subcutaneous) white adipose tissue, wash clean with cold physiological saline and dry with filter paper, and then weigh.

Setting [5] is: 50 mg/kg intragastric for 30 days.
Where [6] appears, read: high fat and high sugar model, 50 mg/kg intragastric daily.
Setting [7] is: serum, 50 mg/kg intragastric for 30 days.

As to `CCCCCCCCCCCCCCCCCC(=O)Oc1ccc2c(=O)c(-c3ccc(OC)cc3)coc2c1` [I-3, 4′-methoxy-7-O-stearoyl daizeol], in data set [1], the Fat index is listed as 5.4 ± 1.2 g/100 g, the “Free fatty acid FFA” value was determined as 730.2 ± 186.0 µmol/L, the “Total cholesterol TC” value came to 1.57 ± 0.30 mmol/L and the “Triglyceride TG” value is 1.19 ± 0.30 mmol/L. Besides, in data set [1], the Weight after administration was found to be 320 ± 34 g. Further, the PPARγ2-mRNA expression quantity result in data set [2] was “significantly decreased”.

`CCCCCCCC/C=C\CCCCCCCC(=O)Oc1ccc2c(c1)CC[C@@H]1[C@@H]2CC[C@]2(C)C(=O)CC[C@@H]12` [OE, Oleoyl-estrone]: the Half-life in data set [3] (intravenous injection) was 250 s. For the same molecule, in data set [3] (oral administration), the “Fraction absorbed in estrone water-soluble ester” value is 12% and the “Fraction absorbed in free estrone form” value is reported as 17%.

On to `CCCCC/C=C\C/C=C\CCCCCCCC(=O)Oc1ccc(-c2coc3cc(OC)ccc3c2=O)cc1` [II-2, 7-methoxy-4′-O-linoleoyl daizeol], for which, in data set [1], the Fat index is listed as 5.1 ± 1.3 g/100 g, the “Free fatty acid FFA” value was 658.8 ± 201.2 µmol/L, the “Total cholesterol TC” value is 1.67 ± 0.23 mmol/L and the “Triglyceride TG” value amounted to 1.03 ± 0.21 mmol/L. Also, the Weight after administration in data set [1] is listed as 318 ± 28 g.

For the molecule `CCCCCCCCCCCCCCCC(=O)Oc1ccc2c(=O)c(-c3ccc(OC)cc3)coc2c1` [I-4, 4′-methoxy-7-O-palmityl daizeol], the PPARγ2-mRNA expression quantity result in data set [2] was “significantly decreased”.

With `CCCCCCCCCCCCCCCCCC(=O)Oc1ccc(-c2coc3cc(OC)ccc3c2=O)cc1` [II-3, 7-methoxy-4′-O-stearoyl daizeol], in data set [1], the Fat index came out at 6.0 ± 2.1 g/100 g, the “Free fatty acid FFA” value was 738.1 ± 196.0 µmol/L, the “Total cholesterol TC” value was found to be 1.71 ± 0.34 mmol/L and the “Triglyceride TG” value turned out to be 1.35 ± 0.35 mmol/L. In data set [1], this molecule returned a Weight after administration of 352 ± 47 g.

Consider `CCCCC/C=C\C/C=C\CCCCCCCC(=O)Oc1ccc2c(=O)c(-c3ccc(OC)cc3)coc2c1` [I-2, 4′-methoxy-7-O-linoleoyl daizeol], for which, in data set [1], the Fat index was found to be 4.3 ± 1.5 g/100 g, the “Free fatty acid FFA” value was 603.8 ± 163.5 µmol/L, the “Total cholesterol TC” value stood at 1.28 ± 0.26 mmol/L and the “Triglyceride TG” value amounted to 0.99 ± 0.21 mmol/L. In data set [1], this molecule gave a Weight after administration of 307 ± 32 g. For the same molecule, in data set [4] (setting [5]), the Celiac total fat is recorded as 0.329 ± 0.403 g, the Epididymal fat is on record as 0.212 ± 0.239 g, the “MDA (serum oxidative damage indicator)” value stood at 1.288 ± 0.145 nmol/L and the Mesenteric fat is on record as 0.058 ± 0.101 g. Moreover, in data set [4] (setting [5]), the Perirenal fat was determined as 0.059 ± 0.057 g, the “SOD (serum oxidative damage indicator)” value was 424.1 ± 192.8 U/ml, the “Serum insulin concentration INS” value came to 22.32 ± 6.39 and the Subcutaneous fat amounted to 0.099 ± 0.071 g. Further, in data set [4] (setting [6]), the “Body weight 1 week after” value amounted to 39.1 ± 4.1 g, the “Body weight 2 weeks after” value is listed as 32.9 ± 5.7 g and the “Body weight 3 weeks after” value is reported as 29.5 ± 2.3 g. Besides, the “Body weight before administration” value in data set [4] (high fat and high sugar model, baseline before 50 mg/kg intragastric) is on record as 42.0 ± 4.4 g. In data set [4] (setting [7]), the FFA came out at 0.43 ± 0.04 mmol/L, the HDL-C worked out at 1.56 ± 0.29 mmol/L, the LDL-C was 0.880 ± 0.655 mmol/L and the TC worked out at 3.18 ± 0.46 mmol/L. This molecule returned a TG in data set [4] (setting [7]) of 0.71 ± 0.22 mmol/L. Also, the PPARγ2-mRNA expression quantity entry in data set [2] is listed as “increased”.

As for `CC(C)CC(N(C)C)C1(c2ccc(Cl)cc2)CCC1` (centres unmarked) [Sibutramine, reference compound], in data set [1], the Fat index is given as 4.3 ± 1.7 g/100 g, the “Free fatty acid FFA” value was 609.6 ± 138.3 µmol/L, the “Total cholesterol TC” value is 1.32 ± 0.29 mmol/L and the “Triglyceride TG” value was determined as 0.97 ± 0.31 mmol/L. For the same molecule, in data set [1], the Weight after administration came out at 301 ± 41 g.

Turning to `CCCCCCCC/C=C\CCCCCCCC(=O)Oc1ccc(-c2coc3cc(OC)ccc3c2=O)cc1` [II-1, 7-methoxy-4′-O-oleoyl daizeol], in data set [1], the Fat index is 5.6 ± 1.6 g/100 g, the “Free fatty acid FFA” value worked out at 696.3 ± 205.4 µmol/L, the “Total cholesterol TC” value was determined as 1.65 ± 0.25 mmol/L and the “Triglyceride TG” value worked out at 1.01 ± 0.24 mmol/L. This molecule showed a Weight after administration in data set [1] of 328 ± 32 g.
